From ChEMBL document CHEMBL1287799, “Design, synthesis, and structure-activity relationship study of bicyclic piperazine analogs of indole-3-carboxamides as novel cannabinoid CB1 receptor agonists” (Bioorg Med Chem Lett, 2010)
Activity calls are given as the source filed them. The calls are words filed in the database; no cut-off is given here.

Tests used:
[1] = tested on: Mus musculus; assay: Antinociceptive effect in iv dosed mouse assessed as increase in tail-flick latency period by tail flick test; format: functional
[2] = target: Cannabinoid receptor 2 (Homo sapiens, UniProt P34972); assay: Displacement of [3H]-CP55940 from human CB2 expressed in insect Sf9 membranes; format: cell membranes
Sequence of Cannabinoid receptor 2 (P34972 whole entry): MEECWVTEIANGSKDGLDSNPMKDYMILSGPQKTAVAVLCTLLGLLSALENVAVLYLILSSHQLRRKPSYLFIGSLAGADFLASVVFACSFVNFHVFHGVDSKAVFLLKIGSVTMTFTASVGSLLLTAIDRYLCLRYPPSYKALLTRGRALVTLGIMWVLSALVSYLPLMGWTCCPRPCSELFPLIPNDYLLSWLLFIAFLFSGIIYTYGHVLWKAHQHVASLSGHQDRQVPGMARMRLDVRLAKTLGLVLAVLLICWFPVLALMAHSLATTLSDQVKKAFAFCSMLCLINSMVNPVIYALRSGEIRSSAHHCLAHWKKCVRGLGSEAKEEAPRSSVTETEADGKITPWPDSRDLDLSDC

[3] = target: T1, Cannabinoid receptor 1 (Homo sapiens, UniProt P21554); assay: biochemical
T1 sequence (P21554 whole entry): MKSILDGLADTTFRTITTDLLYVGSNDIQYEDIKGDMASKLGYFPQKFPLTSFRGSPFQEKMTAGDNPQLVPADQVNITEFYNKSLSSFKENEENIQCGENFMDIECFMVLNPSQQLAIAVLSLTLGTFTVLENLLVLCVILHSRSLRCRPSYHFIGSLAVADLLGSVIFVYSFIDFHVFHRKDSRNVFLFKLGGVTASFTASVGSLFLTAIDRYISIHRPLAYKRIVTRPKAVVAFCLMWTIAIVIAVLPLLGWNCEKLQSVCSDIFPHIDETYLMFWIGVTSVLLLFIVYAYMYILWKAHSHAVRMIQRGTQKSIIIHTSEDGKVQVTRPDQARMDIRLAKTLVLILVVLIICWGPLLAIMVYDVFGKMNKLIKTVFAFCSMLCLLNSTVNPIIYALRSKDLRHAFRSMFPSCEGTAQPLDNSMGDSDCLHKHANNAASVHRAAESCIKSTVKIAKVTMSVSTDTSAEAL

[4] = target: T1, Cannabinoid receptor 1
Description: Agonist activity at human CB1 receptor transfected in CHO cells after 5 hrs by luciferase reporter gene assay

[5] = Half life in mouse liver microsomes; format: ADME, Microsome
[6] = Half life in human liver microsomes; format: ADME, Microsome
[7] = target: Cytochrome P450 2C9 (Homo sapiens, UniProt P11712); assay: Inhibition of human CYP2C9; format: ADME
Sequence of Cytochrome P450 2C9 (P11712 whole entry): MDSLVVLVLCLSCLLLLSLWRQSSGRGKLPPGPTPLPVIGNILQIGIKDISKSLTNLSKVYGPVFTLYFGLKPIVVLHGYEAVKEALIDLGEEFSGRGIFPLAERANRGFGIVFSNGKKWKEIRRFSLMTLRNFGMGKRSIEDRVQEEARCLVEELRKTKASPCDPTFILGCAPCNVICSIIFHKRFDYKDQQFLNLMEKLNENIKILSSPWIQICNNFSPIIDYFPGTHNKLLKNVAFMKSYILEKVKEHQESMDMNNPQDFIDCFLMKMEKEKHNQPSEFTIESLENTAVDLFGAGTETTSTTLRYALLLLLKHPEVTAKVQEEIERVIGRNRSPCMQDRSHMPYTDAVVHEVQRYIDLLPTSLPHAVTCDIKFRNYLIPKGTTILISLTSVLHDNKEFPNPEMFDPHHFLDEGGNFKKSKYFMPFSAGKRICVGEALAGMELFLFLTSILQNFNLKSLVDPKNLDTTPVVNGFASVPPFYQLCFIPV

[8] = target: Cytochrome P450 3A4 (Homo sapiens, UniProt P08684); assay: Inhibition of human CYP3A4; format: ADME
Sequence of Cytochrome P450 3A4 (P08684 whole entry): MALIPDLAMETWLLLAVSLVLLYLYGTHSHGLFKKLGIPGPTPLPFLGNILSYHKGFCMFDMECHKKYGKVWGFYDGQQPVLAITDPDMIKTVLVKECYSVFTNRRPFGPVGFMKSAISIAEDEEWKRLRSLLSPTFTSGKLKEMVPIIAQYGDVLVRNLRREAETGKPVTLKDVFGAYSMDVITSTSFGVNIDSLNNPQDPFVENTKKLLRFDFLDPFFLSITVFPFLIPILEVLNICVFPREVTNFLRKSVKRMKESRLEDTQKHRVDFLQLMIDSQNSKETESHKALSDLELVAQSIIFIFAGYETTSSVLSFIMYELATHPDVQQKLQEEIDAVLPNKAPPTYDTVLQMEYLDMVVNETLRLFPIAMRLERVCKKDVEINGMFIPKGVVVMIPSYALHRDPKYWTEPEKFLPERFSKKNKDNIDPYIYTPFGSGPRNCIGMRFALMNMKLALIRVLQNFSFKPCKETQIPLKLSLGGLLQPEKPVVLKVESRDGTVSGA

[9] = Genotoxicity in Salmonella Typhimurium up to 100 uM by Ames test; format: toxicity; details: salmonella enterica subsp. enterica serovar typhimurium
[10] = target: Cytochrome P450 2D6 (Homo sapiens, UniProt P10635); assay: Inhibition of human CYP2D6; format: ADME
Sequence of Cytochrome P450 2D6 (P10635 whole entry): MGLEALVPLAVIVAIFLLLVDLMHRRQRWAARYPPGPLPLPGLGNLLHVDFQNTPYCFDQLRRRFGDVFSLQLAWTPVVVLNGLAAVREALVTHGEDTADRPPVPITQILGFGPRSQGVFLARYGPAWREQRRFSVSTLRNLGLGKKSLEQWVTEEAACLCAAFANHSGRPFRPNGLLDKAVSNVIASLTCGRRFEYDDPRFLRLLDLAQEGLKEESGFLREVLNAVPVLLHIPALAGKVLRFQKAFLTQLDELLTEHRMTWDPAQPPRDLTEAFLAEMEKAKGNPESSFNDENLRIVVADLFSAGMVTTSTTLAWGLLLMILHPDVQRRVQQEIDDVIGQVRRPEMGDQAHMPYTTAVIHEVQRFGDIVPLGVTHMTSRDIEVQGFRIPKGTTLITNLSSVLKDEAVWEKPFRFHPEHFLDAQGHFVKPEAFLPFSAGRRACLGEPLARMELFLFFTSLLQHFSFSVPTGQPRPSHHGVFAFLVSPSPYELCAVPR

[11] = tested on: Mus musculus; assay: Antinociceptive activity against formalin-induced inflammatory pain in iv dosed mouse assessed inhibition of paw lifting behavior in both phases of formalin response in presence of CB1 antagonist SR-141716A pretreated before compound challenge; format: functional, organism-based
[12] = tested on: Mus musculus; assay: Antinociceptive activity against formalin-induced inflammatory pain in iv dosed mouse assessed inhibition of paw biting behavior in both phases of formalin response in presence of CB1 antagonist SR-141716A pretreated before compound challenge; format: functional, organism-based
[13] = tested on: Mus musculus; assay: Antinociceptive activity against formalin-induced inflammatory pain in mouse assessed inhibition of paw flinching behavior in both phases of formalin response at => 0.3 umol/kg, iv; format: functional, organism-based
[14] = tested on: Mus musculus; assay: Antinociceptive activity against formalin-induced inflammatory pain in mouse assessed inhibition of paw lifting behavior in both phases of formalin response at => 0.3 umol/kg, iv; format: functional, organism-based
[15] = tested on: Mus musculus; assay: Antinociceptive activity against formalin-induced inflammatory pain in iv dosed mouse assessed inhibition of paw flinching behavior in both phases of formalin response; format: functional, organism-based
[16] = tested on: Mus musculus; assay: Antinociceptive activity against formalin-induced inflammatory pain in iv dosed mouse assessed inhibition of paw licking behavior in both phases of formalin response; format: functional, organism-based
[17] = tested on: Mus musculus; assay: Antinociceptive activity against formalin-induced inflammatory pain in iv dosed mouse assessed inhibition of paw lifting behavior in both phases of formalin response; format: functional, organism-based
[18] = tested on: Mus musculus; assay: Antinociceptive activity against formalin-induced inflammatory pain in iv dosed mouse assessed inhibition of paw biting behavior in both phases of formalin response; format: functional, organism-based
[19] = tested on: Mus musculus; assay: Antinociceptive activity against formalin-induced inflammatory pain in iv dosed mouse assessed inhibition of paw licking behavior in both phases of formalin response in presence of CB1 antagonist SR-141716A pretreated before compound challenge; format: functional, organism-based
[20] = tested on: Mus musculus; assay: Antinociceptive activity against formalin-induced inflammatory pain in mouse assessed inhibition of paw licking behavior in both phases of formalin response at => 0.3 umol/kg, iv; format: functional, organism-based
[21] = tested on: Mus musculus; assay: Antinociceptive activity against formalin-induced inflammatory pain in iv dosed mouse assessed inhibition of paw flinching behavior in both phases of formalin response in presence of CB1 antagonist SR-141716A pretreated before compound challenge; format: functional, organism-based
[22] = tested on: Mus musculus; assay: Antinociceptive activity against formalin-induced inflammatory pain in mouse assessed inhibition of paw biting behavior in both phases of formalin response => 0.3 umol/kg, iv; format: functional, organism-based

| Structure (SMILES) | EC50 [4] [nM] | half-life [5] [min] | half-life [6] [min] | further results |
| --- | --- | --- | --- | --- |
| O=C(c1cn2c3c(cccc13)OC[C@H]2C1CCCCC1)N1CCN2CCCC[C@H]2C1 |  |  |  | ED50 [1]: 0.00042 µmol/kg; Ki [2]: 0.398 nM; Ki [3]: 1.58 nM |
| COc1cccc2c(C(=O)N3CCN4CCCC[C@@H]4C3)cn(CC3CCCCC3)c12 | 100 | < 5 | < 5 |  |
| COc1cccc2c(C(=O)N3C[C@H]4CCCN4C[C@H]3C)cn(CC3CCCCC3)c12.Cl | 63.1 | < 5 | < 5 |  |
| COc1cccc2c(C(=O)N3CCN4CCC[C@@]4(C)C3)cn(CC3CCCCC3)c12.Cl | 1260 | < 5 | < 5 |  |
| COc1cccc2c(C(=O)N3CCN4CCCC[C@H]4C3)cn(CC3CCCCC3)c12.Cl |  | < 5 | < 5 |  |
| COc1cccc2c(C(=O)N3CCN4CCC[C@H]4C3)cn(CC3CCCCC3)c12.Cl | 20 | < 5 | < 5 |  |
| COc1cccc2c(C(=O)N3CCN4CCC[C@@H]4C3)cn(CC3CCCCC3)c12 | 63.1 | < 5 | < 5 |  |
| COc1cccc2c(C(=O)N3C[C@]4(C)CSCN4C[C@@H]3C)cn(CC3CCCCC3)c12.Cl | 31.6 | < 5 | < 5 |  |
| COc1cccc2c(C(=O)N3C[C@H]4CCCN4CC3(C)C)cn(CC3CCCCC3)c12 | 631 | < 5 | < 5 |  |
| COc1cccc2c(C(=O)N3CCN4CCCC[C@H]4C3)cn(CC3CCCCC3)c12 [listing 1 of 2 here] |  |  |  | ED50 [1]: 0.00058 µmol/kg; Ki [2]: 3.98 nM; IC50 [7]: 12000 nM; Ki [3]: 2.51 nM; IC50 [8]: 6000 nM; Activity [9]: Non-toxic; IC50 [10]: 13000 nM |
| Cc1c(C(=O)c2cccc3ccccc23)c2cccc3c2n1[C@H](CN1CCOCC1)CO3 [WIN-552122] |  |  |  | ED50 [1]: 0.0017 µmol/kg |
| COc1cccc2c(C(=O)N3C[C@H]4CCCN4C[C@H]3CC(C)C)cn(CC3CCCCC3)c12 | 316 | < 5 | < 5 |  |
| COc1cccc2c(C(=O)N3CCN4CCCC[C@H]4C3)cn(CC3CCCCC3)c12 [listing 2 of 2 here] |  |  |  | Activity [11]: inactive; Activity [12]: inactive; Activity [13]: Active; Activity [14]: Active; Activity [15]: Dose-dependent effect; Activity [16]: Dose-dependent effect; Activity [17]: Dose-dependent effect; Activity [18]: Dose-dependent effect; Activity [19]: inactive; Activity [20]: Active; Activity [21]: inactive; Activity [22]: Active |
| COc1cccc2c(C(=O)N3C[C@@H]4CCCN4CC3(C)C)cn(CC3CCCCC3)c12 | 100 | < 5 | < 5 |  |
| COc1cccc2c(C(=O)N3C[C@@H]4CCCN4C[C@H]3C)cn(CC3CCCCC3)c12.Cl | 1000 | < 5 | < 5 |  |
| COc1cccc2c(C(=O)N3C[C@@H]4CCCN4C[C@@H]3CC(C)C)cn(CC3CCCCC3)c12 | > 10000 | < 5 | < 5 |  |
| O=C(c1cn2c3c(cccc13)OC[C@@H]2C1CCCCC1)N1CCN2CCCC[C@H]2C1 | 2000 |  |  |  |
| COc1cccc2c(C(=O)N3C[C@H]4CCCN4C[C@@H]3C)cn(CC3CCCCC3)c12.Cl | 501 | < 5 | < 5 |  |
| CCCCCCC(C)(C)c1ccc([C@@H]2C[C@H](O)CC[C@H]2CCCO)c(O)c1 [CP-55940] |  |  |  | ED50 [1]: 0.00011 µmol/kg |
| COc1cccc2c(C(=O)N3C[C@@H]4CCCN4C[C@@H]3C)cn(CC3CCCCC3)c12 | 100 | < 5 | < 5 |  |
